Drawing on patent publication US12565494B2, “Inhibitors of human respiratory syncytial virus and metapneumovirus” (priority 2022, dated 2026), this text covers EC50 for 14 compounds.

As usually defined, the EC50 is the concentration giving half of the maximal effect.

The test system of one test is hMPV-GFP virus. Description: microbe, parasite or virus in culture. The conditions noted are these: Table II Summary of Activities for hMPV; VERO cells, hMPV-GFP MOI=1.25, 48 hrs, GFP-expressing cells counted; read-out: RSV EC50. The test is classed as cell-based, Human Metapneumovirus. On the procedure:
GFP expressing rgHMPV #3 p3 was generated in Dr. Buchholz's lab (Biacchesi S. et al., J Virol. 2007 June; 81(11): 6057-6067) and propagated in VERO cells (ATCC Cat #CCL-81) with a Multiplicity of Infection (MOI) of 0.1. Virus was harvested 4 days after infection by collecting cultured material and was freeze-thaw cycled in liquid nitrogen twice. Working virus stocks were generated from thawing frozen samples in 37° C. water bath, which were centrifuged at 218 g for 15 min at 4° C. 1/10 of 10×SPG (Biological Industries 06-3061-01-5A) were added and then mixed. The supernatant was aliquoted, frozen in liquid nitrogen, and then transferred to a −80° C. freezer for storage. Virus titer was determined by performing titration test in 96-well plates and calculate approximate virus titer using GFP event/well data.
Compound plates were prepared by dispensing compounds dissolved in DMSO into wells of a 384 well Corning 3985 polystyrene flat clear bottom optical imaging microplate (202.5 nL/well) using an ECHO acoustic dispenser. Each compound was tested in 10-point serial 3-fold dilution (typical final concentrations: 40,300 nM-2 nM). […] Continuous culture of VERO cells was maintained in complete culture media (OptiMEM supplemented with 2 mM GlutaMAX™ and 100 U/ml Penicillin-Streptomycin). To set up the assay, VERO cells were trypsinized with 0.25% Trypsin-EDTA until cells were dislodged, then cells were re-suspended with 1 mL FBS. Cells were spundown at 300 g for 5 minutes and cells were washed twice with culture media and counted using default parameters on ViCell. Cells were then diluted to 100,000 cells/mL (5,000 cells/50 μL) in complete culture media+TrypLE Select (80 μL/mL). hMPV-GFP virus was added to cells at 125,000 pfu/mL (MOI=1.25) and were mixed by gentle inversion. 10 μL/well of 100% DMSO was dispensed to CellTiter-Glo (CTG) assay Max_E controls wells. Cells were dispensed at 50 μL/well using Bravo and 50 μL filtered tips into compound plates. Plates were covered with MicroClime lids and loaded with 7.5 mL of assay media to minimize evaporation. Plates were lightly shaken for 10 minutes at room temperature and then incubated at 37° C. and 5% CO2 for 48 hrs. Following incubation, distinct GFP-expressing cells were counted using an Acumen imaging system with appropriate settings. A same-well CTG assay was performed by adding 10 μL/well reconstituted CellTiter-Glo reagent (Promega G7573) and plates were read on PerkinElmer Envision according to manufacturer's instructions. Raw data were loaded and analyzed in ActivityBase. Antiviral IC50 and cytotoxicity CC50 values were determined using a 4 parameter logistic fit based on the Levenberg-Marquardt algorithm. Model: 205-4 Parameter Logistic.
Regarding `Cn1nc(-c2ncco2)cc1C(=O)N1C[C@@H]2C(Oc3cc(C(C)(N)CO)cc(-c4ccc(F)cc4)n3)[C@@H]2C1` (single isomer, unassigned; enantiomer 1) [Example 58A], the EC50 is greater than 100 nM.

The same test, now with this note: Vero, 48 h, read-out: RSV EC50, Table II Summary of Activities for hMPV; VERO cells, hMPV-GFP MOI=1.25, 48 hrs, GFP-expressing cells counted.
As to `Cn1nc(-c2cscn2)cc1C(=O)N1C[C@H]2[C@H](Oc3cc(C(C)(C)N)cc(-c4ccc(F)cc4)n3)[C@@]2(C)C1` (single isomer, unassigned; enantiomer 1) [Example 43A], the EC50 fell in the range of 10 to 100 nM.
For the compound `Cn1nc(-c2ncco2)cc1C(=O)N1C[C@H]2[C@H](Oc3cc(C(C)(C)N)cc(-c4ccc(F)cc4)n3)[C@@]2(C)C1` (single isomer, unassigned; enantiomer 1) [Example 44A], the half-maximal effective concentration (EC50) lay in the range of 10 to 100 nM.
In the case of `Cn1nc(-c2ccon2)cc1C(=O)N1C[C@H]2[C@H](Oc3cc(C(C)(C)N)cc(-c4ccc(F)cc4)n3)[C@@]2(C)C1` (single isomer, unassigned; enantiomer 1) [Example 45A], the concentration giving a half-maximal response (EC50) was greater than 100 nM.
Turning to `Cn1nc(-c2cscn2)cc1C(=O)N1C[C@H]2[C@H](Oc3cc(C(C)(C)N)cc(N4CCC(C)(C)CC4)n3)[C@@]2(C)C1` (single isomer, unassigned; enantiomer 1) [Example 46A], the concentration giving a half-maximal response (EC50) was greater than 100 nM.
On the same count and under the same terms, under `Cn1nc(-c2cscn2)cc1C(=O)N1C[C@@H]2[C@H](C1)[C@H]2Oc1cc(C2(C)CCCN2)cc(-c2ccc(F)cc2)n1` (single isomer, unassigned; enantiomer 1) [Example 56A] stands greater than 100 nM; under `Cn1nc(-c2cscn2)cc1C(=O)N1C[C@@H]2[C@H](C1)[C@H]2Oc1cc(C(C)(N)CO)cc(-c2ccc(F)cc2)n1` (single isomer, unassigned; enantiomer 1) [Example 57A], greater than 100 nM; under `CC(N)c1cc(O[C@H]2[C@@H]3CN(C(=O)c4cc(-c5cscn5)nn4C)C[C@@H]32)nc(-c2ccc(F)cc2)c1` (single isomer, unassigned; enantiomer 1) [Example 61A], greater than 100 nM.
The same measure, in the same setting: under `CC(N)c1cc(O[C@H]2[C@@H]3CN(C(=O)c4cc(-c5ccon5)nn4C)C[C@@H]32)nc(-c2ccc(F)cc2)c1` (single isomer, unassigned; enantiomer 1) [Example 62A] stands greater than 100 nM.
On the same count and under the same terms, then `Cn1nc(-c2cscn2)cc1C(=O)N1C[C@@H]2[C@H](C1)[C@H]2Oc1cc(C(C)(C)N)cc(C2CCC(C)(C)CC2O)n1` (single isomer, unassigned; enantiomer 1) [Example 66A], with greater than 100 nM; and `Cn1nc(-c2cscn2)cc1C(=O)N1C[C@@H]2[C@H]1C[C@H]2Oc1cc(C(C)(C)N)cc(-c2ccc(F)cc2)n1` (single isomer, unassigned; enantiomer 2) [Example 1], with greater than 100 nM.
For the compound `Cn1nc(-c2ncco2)cc1C(=O)N1C[C@@H]2[C@H]1C[C@H]2Oc1cc(C(C)(C)N)cc(-c2ccc(F)cc2)n1` (single isomer, unassigned; enantiomer 2) [Example 2], the EC50 was greater than 100 nM.

The same test, now with this note: read-out: RSV EC50; Table II Summary of Activities for hMPV; VERO cells, hMPV-GFP MOI=1.25, 48 hrs, GFP-expressing cells counted.
In the case of `CC(O)c1nc(-c2cscn2)sc1C(=O)N1C[C@@H]2[C@H](C1)[C@H]2Oc1cc(C(C)(C)N)cc(-c2ccc(F)cc2)n1` (single isomer, unassigned; enantiomer 1) [Example 16A], the EC50 was in the range of 10 to 100 nM.
Still for that read-out and setting: under `Cn1nc(-c2cscn2)cc1C(=O)N1C[C@@H]2[C@H](C1)[C@H]2Oc1cc(C2(C)CCN2)cc(-c2ccc(F)cc2)n1` (single isomer, unassigned; enantiomer 1) [Example 55A] stands 10 to 100 nM.

The test system of the next test is RSV-A2-GFP virus. Description: microbe, parasite or virus in culture. The test is classed as cell-based, Human Respiratory Syncytial Virus. The conditions noted are these: Table I Summary of Activities for RSV; Calu-1 cells, RSV-A2-GFP MOI=1.2, 96 hrs, GFP-expressing cells counted; read-out: RSV EC50. On the procedure: To set up the assay, ARF vials were thawed in a 37° C. water bath and a control compound was resuspended in assay media DMEM (Dulbecco's Modified Eagle Medium) containing 2% FBS, 100 U/ml Penicillin-Streptomycin.
GFP sequence was derived from pJTI™ R4 Dest CMV N-EmGFP pA Vector (Invitrogen) and was cloned into the intergenic sequence between wild-type RSV-A2 P and M genes using standard recombineering techniques. Recombinant RSV-A2-GFP was propagated in Hep2 cells (human cells contain HeLa marker chromosomes and were derived via HeLa contamination, ATCC CCL-23) with a Multiplicity of Infection (MOI) of 0.1. Virus was harvested 3 days after infection by collecting all culture material and then freeze-thawing the mixture for 5 minutes. Working virus stocks were generated by thawing frozen viral cultures in 37° C. water bath, which were centrifuged at 218 g for 15 min at 4° C. 1/10 of 10×SPG (Biological Industries 06-3061-01-5A) were added and then mixed. The supernatant was aliquoted, frozen in liquid nitrogen, and then transferred to a −80° C. freezer for storage. Virus titer was determined by automated plaque assay in HEp-2 cells following methods described previously (Wen Z. et al.; 2019).
Calu-1 cells were purchased from ATCC (Cat #HTB-54) and were expanded in growth media (DMEM containing 10% FBS, 100 U/ml Penicillin-Streptomycin). To make ARF, cell culture media was removed and discarded and the cell layer was briefly rinsed with PBS to remove serum. 2.5 mL of TrypLE Express solution were added and cells incubated until dislodged, to which growth media was added and the cells were resuspended by gentle pipetting. Cells were counted for concentration and viability as determined by ViCell. Cells were centrifuged at RT, 300 g for 5 minutes to pellet cells. The supernatant was gently aspirated and the pellet was flicked to loosen cells. Cells were resuspended in an appropriate volume of freezing medium (DMEM containing 10% DMSO, 10% FBS, 100 U/ml Penicillin-Streptomycin) to achieve a concentration of 5×10^6 cells/mL. 1 mL aliquots of the cell suspension were transferred to freezing vials. The vials were put into an upright container in a −80° C. freezer overnight before transferring vials to liquid nitrogen for storage
Assay ready freeze-down (ARF, generation described separately) Calu-1 cells (ATCC HTB-54) were used. Compound plates were prepared by dispensing compounds dissolved in DMSO into the wells of a 384 well Corning® 3985 plate with an ECHO acoustic dispenser and compounds were tested in 10-point serial 3-fold dilution. […] To set up the assay, ARF vial(s) were thawed in a 37° C. water bath and were then resuspended into assay media (DMEM containing 2% FBS, 100 U/ml Penicillin-Streptomycin). Cells were counted using default parameters on ViCell and diluted to 20,000 cells/mL in assay media. RSV-A2-GFP virus was added to cells at 24,000 pfu/ml (MOI=1.2) and mixed by gentle inversion. 10 μL/well of 100% DMSO was dispensed as CellTiter-Glo (CTG) assay Max_E controls wells. The cells were dispensed at 50 μL/well using Bravo with 50 μL filtered tips into compound plates. Plates were covered with MicroClime lids, loaded with 7.5 mL of assay media to minimize evaporation, and were incubated at 37° C. and 5% CO2 for 96 hrs. Following incubation, distinct, GFP-expressing cells were counted using an Acumen imaging system with appropriate settings. A same-well CTG assay was performed by adding 10 μL/well reconstituted CellTiter-Glo reagent (Promega G7573) and plates were read on PerkinElmer Envision according to manufacturer's instructions. Raw data were loaded and analyzed in ActivityBase. Antiviral IC50 and cytotoxicity CC50 values were determined using a 4 parameter logistic fit based on the Levenberg-Marquardt algorithm. Model: 205-4 Parameter Logistic.
`Cn1nc(-c2ncco2)cc1C(=O)N1C[C@@H]2C(Oc3cc(C(C)(N)CO)cc(-c4ccc(F)cc4)n3)[C@@H]2C1` (single isomer, unassigned; enantiomer 1) [Example 58A]: the 50% effective concentration (EC50) is less than 10 nM.

Still in this test, the particulars now being: human respiratory syncytial virus, Calu-1, 96 h, read-out: RSV EC50, Table I Summary of Activities for RSV; Calu-1 cells, RSV-A2-GFP MOI=1.2, 96 hrs, GFP-expressing cells counted.
For the compound `CC(O)c1nc(-c2cscn2)sc1C(=O)N1C[C@@H]2[C@H](C1)[C@H]2Oc1cc(C(C)(C)N)cc(-c2ccc(F)cc2)n1` (single isomer, unassigned; enantiomer 1) [Example 16A], the EC50 is less than 10 nM.
Still for that read-out and setting: under `Cn1nc(-c2cscn2)cc1C(=O)N1C[C@H]2[C@H](Oc3cc(C(C)(C)N)cc(-c4ccc(F)cc4)n3)[C@@]2(C)C1` (single isomer, unassigned; enantiomer 1) [Example 43A] stands less than 10 nM.
Same read-out and setting: then `Cn1nc(-c2ncco2)cc1C(=O)N1C[C@H]2[C@H](Oc3cc(C(C)(C)N)cc(-c4ccc(F)cc4)n3)[C@@]2(C)C1` (single isomer, unassigned; enantiomer 1) [Example 44A], with less than 10 nM.
Same read-out and setting: under `Cn1nc(-c2ccon2)cc1C(=O)N1C[C@H]2[C@H](Oc3cc(C(C)(C)N)cc(-c4ccc(F)cc4)n3)[C@@]2(C)C1` (single isomer, unassigned; enantiomer 1) [Example 45A] stands less than 10 nM; under `Cn1nc(-c2cscn2)cc1C(=O)N1C[C@H]2[C@H](Oc3cc(C(C)(C)N)cc(N4CCC(C)(C)CC4)n3)[C@@]2(C)C1` (single isomer, unassigned; enantiomer 1) [Example 46A], less than 10 nM; under `Cn1nc(-c2cscn2)cc1C(=O)N1C[C@@H]2[C@H](C1)[C@H]2Oc1cc(C2(C)CCN2)cc(-c2ccc(F)cc2)n1` (single isomer, unassigned; enantiomer 1) [Example 55A], less than 10 nM.
As for `Cn1nc(-c2cscn2)cc1C(=O)N1C[C@@H]2[C@H](C1)[C@H]2Oc1cc(C2(C)CCCN2)cc(-c2ccc(F)cc2)n1` (single isomer, unassigned; enantiomer 1) [Example 56A], the EC50 was less than 10 nM.
Take `Cn1nc(-c2cscn2)cc1C(=O)N1C[C@@H]2[C@H](C1)[C@H]2Oc1cc(C(C)(N)CO)cc(-c2ccc(F)cc2)n1` (single isomer, unassigned; enantiomer 1) [Example 57A]: the 50% effective concentration (EC50) is less than 10 nM.
For `CC(N)c1cc(O[C@H]2[C@@H]3CN(C(=O)c4cc(-c5cscn5)nn4C)C[C@@H]32)nc(-c2ccc(F)cc2)c1` (single isomer, unassigned; enantiomer 1) [Example 61A], the EC50 was less than 10 nM.
As for `CC(N)c1cc(O[C@H]2[C@@H]3CN(C(=O)c4cc(-c5ccon5)nn4C)C[C@@H]32)nc(-c2ccc(F)cc2)c1` (single isomer, unassigned; enantiomer 1) [Example 62A], the EC50 is less than 10 nM.
On the same count and under the same terms, then `Cn1nc(-c2cscn2)cc1C(=O)N1C[C@@H]2[C@H](C1)[C@H]2Oc1cc(C(C)(C)N)cc(C2CCC(C)(C)CC2O)n1` (single isomer, unassigned; enantiomer 1) [Example 66A], with less than 10 nM.
Regarding `Cn1nc(-c2cscn2)cc1C(=O)N1C[C@@H]2[C@H]1C[C@H]2Oc1cc(C(C)(C)N)cc(-c2ccc(F)cc2)n1` (single isomer, unassigned; enantiomer 2) [Example 1], the concentration giving a half-maximal response (EC50) was less than 10 nM.
The same measure, in the same setting: then `Cn1nc(-c2ncco2)cc1C(=O)N1C[C@@H]2[C@H]1C[C@H]2Oc1cc(C(C)(C)N)cc(-c2ccc(F)cc2)n1` (single isomer, unassigned; enantiomer 2) [Example 2], with 10 to 100 nM.
